Laboratory results taken from ChEMBL document CHEMBL1201862, “PubChem BioAssay data set” (2004).
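Each compound was tested at five concentrations against cells in 96-well plates for 48 hours. GI50 marks 50% less growth.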 The source made the active and inactive calls. Rule as the data show it: active = GI50 up to about 1.1 µM and inactive = higher.

Tests used:
Test in all cases: NCI-60 cell line screen, 48 h
[1] = test system: KM12
[2] = test system: SNB-19
[3] = test system: LOX IMVI
[4] = test system: SK-MEL-2
[5] = test system: OVCAR-3
[6] = test system: T47D
[7] = test system: NCI-H226
[8] = test system: HCC 2998
[9] = test system: COLO 205
[10] = test system: CAKI-1
[11] = test system: MDA-MB-435
[12] = test system: HOP-92
[13] = test system: M14
[14] = test system: A549
[15] = test system: SK-OV-3
[16] = test system: PC-3
[17] = test system: IGROV-1
[18] = test system: U-251
[19] = test system: HOP-62
[20] = test system: SK-MEL-28

Measured: GI50

CC1=CC(=O)N(n2c(Cc3ccc(Cl)cc3)n[nH]c2=O)C1=O
inactive: [1] 52.4 µM | [2] 55.6 µM | [3] 27.6 µM | [4] > 100 µM | [5] 33.6 µM | [6] 35.4 µM | [7] > 100 µM | [8] > 100 µM | [9] 71.3 µM | [10] 88.3 µM | [11] 38.2 µM | [12] 21.1 µM | [13] 47.9 µM | [14] 77.6 µM | [15] > 100 µM | [16] 26.4 µM | [17] 83.4 µM | [18] 27.2 µM

O=c1c2ccccc2n2c(S)nnc2n1-c1ccccc1
inactive: [1] > 100 µM | [2] > 100 µM | [3] > 100 µM | [4] > 100 µM | [19] > 100 µM | [5] > 100 µM | [20] > 100 µM | [6] > 100 µM | [7] > 100 µM | [8] > 100 µM | [9] > 100 µM | [10] > 100 µM | [11] > 100 µM | [13] > 100 µM | [14] > 100 µM | [15] > 100 µM | [16] > 100 µM | [17] > 100 µM | [18] > 100 µM

COc1cc(CNc2nc3cc(C(F)(F)F)ccc3nc2C(=O)O)cc(OC)c1OC
inactive: [1] 24.7 µM | [2] 21.6 µM | [3] 31.4 µM | [4] 19.9 µM | [19] 18.5 µM | [5] 24.3 µM | [20] 22.5 µM | [6] 21.1 µM | [7] 60.7 µM | [8] 41.4 µM | [9] 22.6 µM | [10] 25.3 µM | [11] 23.4 µM | [13] 17.5 µM | [14] 21.4 µM | [15] 28.4 µM | [16] 21.5 µM | [18] 15.7 µM

OC[C@H]1N[C@H](CO)[C@@H](O)[C@H]1O
inactive: [1] > 100 µM | [2] > 100 µM | [3] > 100 µM | [4] > 100 µM | [19] > 100 µM | [20] > 100 µM | [6] > 100 µM | [7] > 100 µM | [8] > 100 µM | [9] > 100 µM | [10] > 100 µM | [11] > 100 µM | [13] > 100 µM | [14] > 100 µM | [15] > 100 µM | [16] > 100 µM | [17] > 100 µM | [18] > 100 µM

Cn1c(=O)[nH]n(-c2ccc3ccccc3c2)c1=O
inactive: [1] > 100 µM | [2] > 100 µM | [3] > 100 µM | [4] > 100 µM | [5] > 100 µM | [20] > 100 µM | [6] > 100 µM | [7] > 100 µM | [8] > 100 µM | [9] > 100 µM | [10] > 100 µM | [11] > 100 µM | [12] > 100 µM | [13] > 100 µM | [14] > 100 µM | [15] > 100 µM | [16] > 100 µM | [17] > 100 µM | [18] > 100 µM

N#CC(C#N)=C1C(=O)NC(N)=C1C#N
inactive: [1] > 100 µM | [2] > 100 µM | [3] > 100 µM | [4] > 100 µM | [19] > 100 µM | [20] > 100 µM | [6] > 100 µM | [7] > 100 µM | [8] > 100 µM | [9] > 100 µM | [10] > 100 µM | [11] > 100 µM | [12] > 100 µM | [13] > 100 µM | [14] > 100 µM | [15] > 100 µM | [16] > 100 µM | [17] > 100 µM | [18] > 100 µM

Nc1nc(=O)n(C2OC(CO)C(O)C2O)c2ncc(-c3ccc(-c4ccccc4)cc3)nc12 (configuration not stated)
inactive: [1] > 100 µM | [2] 82.2 µM | [3] 83.2 µM | [4] > 100 µM | [19] 60 µM | [6] > 100 µM | [7] 24.1 µM | [8] > 100 µM | [9] > 100 µM | [10] > 100 µM | [11] > 100 µM | [12] > 100 µM | [14] > 100 µM | [15] > 100 µM | [16] > 100 µM | [17] > 100 µM | [18] 31.3 µM

CC(C)=CCC[C@@H](C)/C=C/C=C(\C)C(=O)CC[C@@H]1CC[N@+]2(C)CCCC[C@H]12
inactive: [1] > 100 µM | [2] 31.3 µM | [3] 35.2 µM | [4] > 100 µM | [19] > 100 µM | [5] 32.9 µM | [20] > 100 µM | [6] > 100 µM | [7] 4.47 µM | [8] > 100 µM | [9] 81.3 µM | [10] > 100 µM | [11] > 100 µM | [12] 6.44 µM | [13] > 100 µM | [14] > 100 µM | [16] 31 µM | [17] 55.1 µM | [18] 23.9 µM
